The values that follow are results of earlier work, collected in US20050113452A1, “Composition and dosage form for sustained effect of levodopa” (priority 2003, published 2005).

This data set relates to Parkinson's disease patients. The settings on record: especially when the two drugs are delivered together, Camicioli et al. 2001.

For the compound `COC(=O)C(c1ccccc1)C1CCCCN1` (stereo not shown) [Methylphenidate, methylphenidate], the “Motor effects when used with levodopa” value was “severe dyskinesia”.
